Data from the supplement of paper PMC11451515.

Key:
Conditions in all cases: 48 h
[1] = test system: P12-Ichikawa; assay: AUC of viability dose-response curve (% viability x log10 dose units); higher = less sensitive
How it was run: (§1)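 Library compounds in DMSO were applied for 48 h at 37°C at 11 threefold doses (47 μM to 0.79 nM) to medium-adapted leukemia cells in 1536-well plates holding 500 or 1000 cells/well. Luminescence from CellTiter-Glo One was normalised plate by plate against DMSO and cell-free wells. Area under the curve came from trapezoidal integration of a log-logistic fit, after scaling curves that rose above full viability and discarding those that failed quality control. The fit had four parameters and used log10 doses.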

[2] = test system: NOMO1; assay: as above
How it was run: as §1

[3] = test system: SEM cells; assay: as above
How it was run: as §1

[4] = test system: P12-Ichikawa; assay: cell viability relative to DMSO control; higher = less cytotoxic
How it was run: (§2)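 Before seeding, each leukemia line was adapted for at least four passages in each medium. NOMO1 or SEM cells (500 cells/well) and P12-Ichikawa cells (1000 cells/well) went into 1536-well plates at 5 μl, then received library compounds in DMSO by pin dosing across 11 threefold concentrations, 47 μM to 0.79 nM. Readout was CellTiter-Glo One luminescence after 48 h at 37°C, and viability is given as a per-plate percentage of DMSO wells, with cell-free wells as background.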

[5] = test system: SEM cells; assay: as above
How it was run: as §2

[6] = test system: NOMO1; assay: as above
How it was run: as §2

CCCN1CCO[C@@H]2c3cc(O)ccc3OC[C@H]21
AUC of viability dose-response curve
Conditions	[1]	[2]	[3]
HPLM + 10% dialyzed FBS	448	451	406
RPMI 5 mM glucose + 10% FBS	446	456	424
RPMI 5 mM glucose + 10% dialyzed FBS	441	456	433

cell viability [%], HPLM + 10% dialyzed FBS
Conditions	[4]	[5]
0.000781 µM	125	120
0.00234 µM	123	123
0.00702 µM	128	135
0.0211 µM	120	112
0.0632 µM	120	122
0.19 µM	118	118
0.569 µM	113	105
1.71 µM	114	103
5.12 µM	114	68.4
15.4 µM	101	99.7
46.1 µM	12.1	48.1

CC12CC3CC(C)(C1)CC(N)(C3)C2
AUC of viability dose-response curve
Conditions	[1]	[2]	[3]
HPLM + 10% dialyzed FBS	450	446	440
RPMI 5 mM glucose + 10% FBS	464	457	419
RPMI 5 mM glucose + 10% dialyzed FBS	467	461	459

cell viability [%]
Conditions	[4]	[5]	[6]
HPLM + 10% dialyzed FBS, 0.000781 µM	122	89.4	119
HPLM + 10% dialyzed FBS, 0.00234 µM	119	107	111
HPLM + 10% dialyzed FBS, 0.00702 µM	115	93.2	120
HPLM + 10% dialyzed FBS, 0.0211 µM	115	105	98.4
HPLM + 10% dialyzed FBS, 0.0632 µM	129	96.7	125
HPLM + 10% dialyzed FBS, 0.19 µM	130	99.4	139
HPLM + 10% dialyzed FBS, 0.569 µM	124	127	134
HPLM + 10% dialyzed FBS, 1.71 µM	122	126	129
HPLM + 10% dialyzed FBS, 5.12 µM	117	103	107
HPLM + 10% dialyzed FBS, 15.4 µM	89.8	114	89.2
HPLM + 10% dialyzed FBS, 46.1 µM	58.9	105	49.7
RPMI 5 mM glucose + 10% FBS, 0.000781 µM	109	106	105
RPMI 5 mM glucose + 10% FBS, 0.00234 µM	118	94.4	116
RPMI 5 mM glucose + 10% FBS, 0.00702 µM	117	105	133
RPMI 5 mM glucose + 10% FBS, 0.0211 µM	120	109	113
RPMI 5 mM glucose + 10% FBS, 0.0632 µM	138	110	122
RPMI 5 mM glucose + 10% FBS, 0.19 µM	122	106	128
RPMI 5 mM glucose + 10% FBS, 0.569 µM	131	122	134
RPMI 5 mM glucose + 10% FBS, 1.71 µM	130	114	108
RPMI 5 mM glucose + 10% FBS, 5.12 µM	123	133	127
RPMI 5 mM glucose + 10% FBS, 15.4 µM	112	123	100
RPMI 5 mM glucose + 10% FBS, 46.1 µM	78.4	131	58.5
RPMI 5 mM glucose + 10% dialyzed FBS, 0.000781 µM	110	84.3	111
RPMI 5 mM glucose + 10% dialyzed FBS, 0.00234 µM	115	86.8	105
RPMI 5 mM glucose + 10% dialyzed FBS, 0.00702 µM	116	88.6	114
RPMI 5 mM glucose + 10% dialyzed FBS, 0.0211 µM	117	116	111
RPMI 5 mM glucose + 10% dialyzed FBS, 0.0632 µM	129	102	116
RPMI 5 mM glucose + 10% dialyzed FBS, 0.19 µM	117	104	132
RPMI 5 mM glucose + 10% dialyzed FBS, 0.569 µM	125	110	135
RPMI 5 mM glucose + 10% dialyzed FBS, 1.71 µM	127	103	120
RPMI 5 mM glucose + 10% dialyzed FBS, 5.12 µM	115	101	113
RPMI 5 mM glucose + 10% dialyzed FBS, 15.4 µM	109	95.5	102
RPMI 5 mM glucose + 10% dialyzed FBS, 46.1 µM	89.7	104	78

COc1nc(C)cnc1N[S+](=O)([O-])c1cccnc1-c1ccc(-c2nnco2)cc1
AUC of viability dose-response curve
Conditions	HPLM + 10% dialyzed FBS	RPMI 5 mM glucose + 10% FBS	RPMI 5 mM glucose + 10% dialyzed FBS
[2]	465	455	474
[3]	471	452	460

C[C@@H]1CCO[C@H]2CN\3/C=C(/C(=O)NCC4=C(F)C=C(F)C=C4)C(=O)\C(=C3C(=O)N12)O
AUC of viability dose-response curve
Conditions	[1]	[2]	[3]
HPLM + 10% dialyzed FBS	456	458	447
RPMI 5 mM glucose + 10% FBS	460	442	454
RPMI 5 mM glucose + 10% dialyzed FBS	459	452	465

cell viability [%]
Conditions	[4]	[5]	[6]
HPLM + 10% dialyzed FBS, 0.000781 µM	108	82.2	107
HPLM + 10% dialyzed FBS, 0.00234 µM	109	104	103
HPLM + 10% dialyzed FBS, 0.00702 µM	103	85	117
HPLM + 10% dialyzed FBS, 0.0211 µM	109	104	116
HPLM + 10% dialyzed FBS, 0.0632 µM	106	73.4	109
HPLM + 10% dialyzed FBS, 0.19 µM	105	91.6	109
HPLM + 10% dialyzed FBS, 0.569 µM	103	105	101
HPLM + 10% dialyzed FBS, 1.71 µM	96.5	103	90.6
HPLM + 10% dialyzed FBS, 5.12 µM	103	104	105
HPLM + 10% dialyzed FBS, 15.4 µM	104	91.5	102
HPLM + 10% dialyzed FBS, 46.1 µM	93.5	85.3	108
RPMI 5 mM glucose + 10% FBS, 0.000781 µM	99.3	100	87.6
RPMI 5 mM glucose + 10% FBS, 0.00234 µM	99.5	95.2	91.1
RPMI 5 mM glucose + 10% FBS, 0.00702 µM	106	99.6	110
RPMI 5 mM glucose + 10% FBS, 0.0211 µM	105	98.5	88.7
RPMI 5 mM glucose + 10% FBS, 0.0632 µM	101	44.4	92.6
RPMI 5 mM glucose + 10% FBS, 0.19 µM	104	111	88.5
RPMI 5 mM glucose + 10% FBS, 0.569 µM	111	104	84.5
RPMI 5 mM glucose + 10% FBS, 1.71 µM	96.3	112	102
RPMI 5 mM glucose + 10% FBS, 5.12 µM	93.9	107	86.3
RPMI 5 mM glucose + 10% FBS, 15.4 µM	91.9	85.8	95.4
RPMI 5 mM glucose + 10% FBS, 46.1 µM	74	88.1	93.9
RPMI 5 mM glucose + 10% dialyzed FBS, 0.000781 µM	105	93.4	90.3
RPMI 5 mM glucose + 10% dialyzed FBS, 0.00234 µM	97.1	98.7	82
RPMI 5 mM glucose + 10% dialyzed FBS, 0.00702 µM	103	95.2	106
RPMI 5 mM glucose + 10% dialyzed FBS, 0.0211 µM	97.9	96.3	96.9
RPMI 5 mM glucose + 10% dialyzed FBS, 0.0632 µM	101	99.1	99.6
RPMI 5 mM glucose + 10% dialyzed FBS, 0.19 µM	95.6	100	85.8
RPMI 5 mM glucose + 10% dialyzed FBS, 0.569 µM	98.7	107	103
RPMI 5 mM glucose + 10% dialyzed FBS, 1.71 µM	93.6	99.3	98.4
RPMI 5 mM glucose + 10% dialyzed FBS, 5.12 µM	97.7	94.6	95.5
RPMI 5 mM glucose + 10% dialyzed FBS, 15.4 µM	86.5	96.7	87.1
RPMI 5 mM glucose + 10% dialyzed FBS, 46.1 µM	82.1	86.6	96.2
